Source: patent US11920136B2, “Transglutaminase-mediated conjugation” (Tallac Therapeutics, Inc., priority 2020, dated 2024)

How the values were obtained:
CD19+CD20+ B cells = assay: Anti-CD22 (TNT127):CpG conjugates on human PBMCs, CD40 on CD19+ B cells (Examples 19-20); type: cell-based; conditions: conjugated to antibody TNT127 (DAR1), compared to the 12070 conjugate
Procedure: Trima residuals were received from Vitalant and diluted 1:2 with Phosphate Buffered Saline (PBS, Gibco). Diluted blood was split into two tubes and underplayed with 15 mL FICOLL® PAQUE medium (GE Healthcare). Tubes were centrifuged for 30 minutes at 400×g. PBMCs were collected from the interface, resuspended and washed in FACS buffer (PBS with 0.5% Bovine Serum Albumin (Gibco)). After one wash, PBMCs were resuspended in Complete RPMI (RPMI+10% FBS). PBMCs were immediately plated onto a 96-well format (500K/well) in Complete RPMI. Five-fold serial dilutions were added to the cells from 100 nM to 6.4 pM conjugated antibody at 37° C. under 5% CO2 for 48 hours. Cells were pelleted by centrifugation for five minutes at 400×g and stained at 4° C. in Fixable Viability Dye eFluor 780 (Thermo Fisher Scientific) diluted 1:4000 in PBS. Cells were centrifuged and stained at 4° C. in FACS buffer for 30 minutes containing FcR Blocking Reagent (Miltenyi Biotec), anti-CD19, anti-CD20, anti-CD40, anti-HLADR and anti-CD80. Cells were centrifuged and washed twice in FACS buffer and fixed in 0.5% paraformaldehyde. Cells were analyzed on ATTUNE™ NxT Flow Cytometer (Thermo Fisher Scientific), with subsequent data analysis by FLOWJO™ 10.7 (Treestar). Dead cells were excluded by gating on the eFluor 780-negative population.
The activity of CD22 antibody-CpG conjugates DAR1 and DAR2 were compared for activity.

CD19 positive B cells = assay: Free CpG activity on CD40 expression by CD19+ B cells in human PBMCs (Examples 16-17); type: cell-based; conditions: compared with 12070
Procedure: (§1) Trima residuals were received from Vitalant and diluted 1:2 with Phosphate Buffered Saline (PBS, Gibco). Diluted blood was split into two tubes and underplayed with 15 mL Ficoll-Paque (GE Healthcare). Tubes were centrifuged for 30 minutes at 400×g. PBMCs were collected from the interface, resuspended and washed in FACS buffer (PBS with 0.5% Bovine Serum Albumin (Gibco)). After one wash, PBMCs were resuspended in Complete RPMI (RPMI+10% FBS).
PBMCs were immediately plated onto a 96-well format (500K/well) in Complete RPMI. Five-fold serial dilutions were added to the cells from 1 uM to 64 pM of CpG polynucleotides at 37° C. under 5% CO2 for 48 hours. Cells were pelleted by centrifugation for five minutes at 400×g and stained at 4° C. in Fixable Viability Dye eFluor 780 (Thermo Fisher) diluted 1:4000 in PBS. Cells were centrifuged and stained at 4° C. in FACS buffer for 30 minutes containing FcR Blocking Reagent (Miltenyi Biotec), anti-CD19, anti-CD20, anti-CD40, anti-HLADR and anti-CD80. Cells were centrifuged and washed twice in FACS buffer and fixed in 0.5% paraformaldehyde. Cells were analyzed on ATTUNE™ NxT Flow Cytometer (Thermo Fisher Scientific), with subsequent data analysis by FLOWJO™ 10.7 (Treestar). […] B cells were identified as CD19+CD20+ cells and level of activation marker was assessed by median fluorescent intensity. […]

[1] = test system: EMT6 mouse mammary carcinoma cells; assay: EMT6 breast cancer model, intratumoral administration; type: in vivo, BALB/c mice; conditions: intratumorally 2 doses every 3 days at 24 uM
Procedure: 100 uL of suspended cells were subcutaneously implanted into the right flank of 6 week old female BALB/c mice (Charles River). Tumor size was measured and recorded twice a week with calipers starting 7 days post implantation until duration of the study, approximately 25 days later. Tumor volume was calculated using the following formula: (length×width×width)/2. Once tumors reached on average 180 mm^3, approximately 7 days post implantation, mice were randomized by tumor size and treatments were initiated.

B cells = assay: B cell activation by anti-CD22 (RFB4):CpG conjugates in human PBMCs (Examples 2 and 4); type: cell-based; conditions: for B cell activation (CD19, CD40, CD69, CD86, HLADR expression): RFB4 conjugates, DAR1, 96 hours; for B cell activation as determined by CD80 expression: conjugate to anti-CD22 antibody (SEQ ID NO: 56 and 57), DAR1, compared with conjugate of CpG (SEQ ID NO: 3) and naked CpG
Procedure: (§2) PBMCs were immediately plated onto a 96-well format (500K/well) in Complete RPMI (RPMI+10% FBS). Five-fold serial dilutions were added to the cells from 100 nM to 6.4 pM of antibody and conjugated antibody and 1 uM to 64 pM of CpG polynucleotides at 37° C. under 5% CO2 for 48 to 96 hours. Cells were pelleted by centrifugation for five minutes at 400×g and stained at 4° C. in Fixable Viability Dye eFluor 780 (Thermo Fisher Scientific) diluted 1:4000 in PBS. Cells were centrifuged and stained at 4° C. in FACS buffer for 30 minutes containing FcR Blocking Reagent (Miltenyi Biotec), anti-CD19, anti-CD20, anti-CD40, anti-HLADR and anti-CD80 for B cell assays and anti-CD14, anti-CD3, anti-CD19, anti-CD14, anti-CD123, anti-CD11 c and anti-CD86 for pDC assays. Cells were centrifuged and washed twice in FACS buffer and fixed in 0.5% paraformaldehyde. CountBright™ Absolute Counting Beads (Thermo Fisher) were added to each well to count the number of cells. Cells were analyzed on ATTUNE™ NxT Flow Cytometer (Thermo Fisher Scientific), with subsequent data analysis by Flowjo 10.7 (Treestar). Dead cells were excluded by gating on the eFluor 780-negative population. Lineage specific cells were first excluded (CD19, CD3, CD14) prior to gating CD123^+CD11c^− cells to identify pDC and gating CD19^+, CD20^+ or CD19^+CD20^+ cells to identify B cells.
as §1, with “1:4” for “1:2”, “interface and” for “interface,”, “resuspended” for “resuspended and washed”, “(Gibco)).” for “(Gibco)). After one wash, PBMCs were resuspended in Complete RPMI (RPMI+10% FBS).”
as §2, with “antiCD11” for “anti-CD11”, “COUNTBRIGHT™” for “CountBright™”, “Fisher Scientific)” for “Fisher)”
Various B-cell and pDC specific antibodies were conjugated with CpG 12070 (SEQ ID NO: 3), CpG (SEQ ID NOs: 9, 12, 20, 27 and 28), all with the DAR1 configuration, at their C-terminus heavy chain Q-tag ([…]) (SEQ ID NO: 49) via transglutaminase reaction. The conjugated antibodies were subsequently tested for their effects on proliferation and/or activation. […] As shown in FIGS. 5A-5D, the anti-CD22-CpG antibodies enhanced the activation of B cells as compared to naked CpG polynucleotide 12070 (SEQ ID NO: 3) and human IgG control antibody after 96 hours. As determined by CD19, CD40, CD69, CD86, and HLADR expression, only anti-CD22-CpG and CpG alone induced B cell activation. Direct delivery of CpG by a targeting antibody results in higher activation as compared to CpG alone.

7-6: CpG oligonucleotide: "CpG 7-6 (SEQ ID NO:34)" (DNA UCGTCGTGTCGTTT; chemically modified, pattern not given here)
CD40 expression (CD19+CD20+ B cells): substantially better activity | CD40 expression in PBMC from three donors (D559, D804 and D643) (CD19 positive B cells): higher activities

CpG-4253: "the free CpG (CpG-4253)"; apparently "4523 murine CpG oligonucleotide", "tucgtcgtgacgtt-c3" (SEQ ID NO:121) (DNA TUCGTCGTGACGTT; 3' C3 spacer, chemistry not fully specified; listed as Mus musculus)
anti-tumor potency [1]: showed anti-tumor potency

SEQ ID NO: 9: "modified CpGs"; tested "as an antibody-CpG conjugate" "to anti-CD22 antibody (SEQ ID NO: 56 and SEQ ID NO: 57)" (DNA UCGTCGTGTCGTTT; modified CpG; (1)..(14) Linkages as shown in Table 2 of the specification; (1)..(14) Modified as shown in Table 2 of the specification)
B cell activation (CD19, CD40, CD69, CD86, HLADR expression) (B cells): enhanced activity | B cell activation as determined by CD80 expression (B cells): increased B cell activation

SEQ ID NO: 12: "modified CpGs"; tested "as an antibody-CpG conjugate" "to anti-CD22 antibody (SEQ ID NO: 56 and SEQ ID NO: 57)" (DNA UCGTCGTGTCGTTT; modified CpG; (1)..(14) Linkages as shown in Table 2 of the specification; (1)..(14) Modified as shown in Table 2 of the specification)
B cell activation as determined by CD80 expression (B cells): increased B cell activation

SEQ ID NO: 13: "modified CpGs"; tested "as an antibody-CpG conjugate" "to anti-CD22 antibody (SEQ ID NO: 56 and SEQ ID NO: 57)" (DNA UCGTCGTGTCGTTT; modified CpG; (1)..(14) Linkages as shown in Table 2 of the specification; (1)..(14) Modified as shown in Table 2 of the specification)
B cell activation as determined by CD80 expression (B cells): increased B cell activation

SEQ ID NO: 15: "modified CpGs"; tested "as an antibody-CpG conjugate" "to anti-CD22 antibody (SEQ ID NO: 56 and SEQ ID NO: 57)" (DNA UCGTCGTGTCGTT; modified CpG; (1)..(13) Linkages as shown in Table 2 of the specification; (1)..(13) Modified as shown in Table 2 of the specification)
B cell activation as determined by CD80 expression (B cells): increased B cell activation

SEQ ID NO: 20: "modified CpGs"; tested "as an antibody-CpG conjugate" "to anti-CD22 antibody (SEQ ID NO: 56 and SEQ ID NO: 57)" (DNA UCGTCGTGTCGTT; modified CpG; (1)..(13) Linkages as shown in Table 2 of the specification; (1)..(13) Modified as shown in Table 2 of the specification)
B cell activation (CD19, CD40, CD69, CD86, HLADR expression) (B cells): enhanced activity | B cell activation as determined by CD80 expression (B cells): increased B cell activation
